From patent US20150023885A1, “Antiperspirant Spray Devices and Compositions” (The Procter & Gamble Company, priority 2013, published 2015)

Source text: (§1) Solubility may be determined by measuring the amount of light transmittance (a light transmittance value) through a simple mixture of the non-volatile silicone fluid and liquid activation enhancer at the same weight/weight concentrations as in a final antiperspirant composition.
as §1, with “Solubility of a liquid activation enhancer in a non-volatile silicone” for “Solubility”, “(light” for “(a light”
The Spectronic Genesys 10 Vis utilizes a tungsten-halogen light source and has a spectral bandwidth of 5 nm, a wavelength range of 325 to 1100 nm, accuracy of ±1 nm and a repeatability of ±0.5 nm. Readouts include absorbance, transmittance and concentration. The spectrophotometer is set to 640 nm wavelength and the percent transmittance mode/readout. Polystyrene spectrometer cuvettes having a 1 cm optical light path and transmittance between ˜340 nm and ˜900 nm are used. One suitable example of a spectrometer cuvette is available from VWR International LLC under Catalog #97000-584 having a 2.5 to 4.5 ml capacity. The spectrophotometer is calibrated according to the manufacturer's instructions using a reference cuvette and composition comprised of just the non-volatile silicone fluid of interest. For example, if the test composition comprises 50 centistoke dimethicone and 15% w/w of isopropyl myristate, then the spectrometer is calibrated using a cuvette containing just 50 centistoke dimethicone. Sample cuvettes are filled sufficiently with a test composition of a non-volatile silicone fluid and liquid activation enhancer so that the light path of the spectrophotometer passes through the test composition in the cuvette. The sample cuvettes are shaken well just prior to taking a light transmittance reading.

| Compound | light transmittance value | solubility in 50 centistoke dimethicone |
| --- | --- | --- |
| mineral oil | about 100% |  |
| CCCCCCCCCCCCCC(C)C [isohexadecane] | about 100% | soluble in 50 centistoke dimethicone across the 2% to 30% w/w concentration range |
| CCCCCCCCCCCCCCCCCC(=O)OCCCC [butyl stearate] | about 100% |  |
| PPG-14 butyl ether |  | insoluble in 50 centistoke dimethicone across the 2% to 30% w/w concentration range |
